Laboratory results: patent US8426453B2 (Astellas Pharma Inc., priority 2006, dated 2013)

What was measured:
SD rats [1] = test: Gastric ulcer model (diclofenac-induced ulcer in gastric corpus); type: in vivo; conditions: 1 hour before diclofenac 40 mg/kg oral, measured 6 hours after diclofenac
Method: A test compound was suspended in a 0.5% methyl cellulose (MC) solution to prepare a chemical liquid having a concentration 5 ml/kg; and this was orally administered to SD rats (n=12 in each group). The test compound was controlled to be 10 mg/kg or 30 mg/kg. A control group was separately prepared, in which 5 ml/kg of the 0.5% MC solution was orally administered to the rats. After 1 hour, 40 mg/kg of NSAID, diclofenac (by Sigma) was orally administered to all rats of all groups, as a suspension in 0.5% MC solution (5 ml/kg). In 6 hours after the diclofenac administration, the length of the ulcer formed in the gastric corpus was measured using a stereomicroscope (by Nikon) and a micrometer (by Olympus), and the data of 12 cases were averaged. The antiulceration potency (%) of the test compound was computed according to the following formula: Antiulceration Potency (%): [1−(mean ulcer length of compound-administered group/mean ulcer length of 0.5% MC-administered group)]×100.

[2] = target: T1, xanthine oxidase (derived from butter milk, by Sigma) (Bos taurus, UniProt P80457); test: Xanthine oxidase inhibiting activity (pterin fluorescence assay); type: biochemical; conditions: xanthine oxidase 0.03 units/ml, pterin 5 μM, room temperature
T1 construct: xanthine oxidase (derived from butter milk, by Sigma); purchased Sigma; host or cells: butter milk (natural source)
Method: A test compound was dissolved in DMSO (by Nacalai) to have a concentration of 10 mM, and then just before use, its concentration was adjusted to a desired one.
The xanthine oxidase inhibitory activity of the compound of the present invention was evaluated according to a partly modified method of a method described in a reference “Free Radic. Biol. Med. 6, 607-615, 1992”. Concretely, xanthine oxidase (derived from butter milk, by Sigma) was mixed with 50 mM phosphate buffer to be 0.03 units/ml, and applied to a 96-well plate in an amount of 50 μl/well. The test compound diluted to have a final concentration was added to the plate in an amount of 2 μl/well, and processed at room temperature for 20 minutes. Pterin (by Sigma) was added to it to have a final concentration of 5 μM in an amount of 50 μl/well, and reacted at room temperature for 10 minutes. Under a condition of excitation at 345 nm and emission at 390 nm (pterin is oxidized by xanthine oxidase to give isoxanthopterin, and under the condition it emits light), the sample was analyzed using a microplate reader sapphire (by Tacan).
The light emission by isoxanthopterin in the presence or absence of xanthine oxidase was defined as 0% inhibition and 100% inhibition, respectively, and the concentration (IC50) of the test compound for 50% inhibition was computed.

SD rats [3] = test: Small intestine ulcer model (indomethacin-induced ulcer); type: in vivo; conditions: 10 mg/kg oral, 1 hour before and 9 hours after indomethacin 10 mg/kg oral, measured after 24 hours
Method: A test compound was suspended in a 0.5% methyl cellulose (MC) solution to prepare a chemical liquid having a concentration 5 ml/kg; and this was orally administered to SD rats (n=10 in each group). The test compound was controlled to be 10 mg/kg in every case. A control group was separately prepared, in which 5 ml/kg of the 0.5% MC solution was orally administered to the rats. After 1 hour, 10 mg/kg of NSAID, indomethacin (by Sigma) was orally administered to the rats, as a suspension in 0.5% MC solution (5 ml/kg). In 9 hours after the indomethacin administration, the test compound was again orally administered to every rat in the same amount as previously; and after 24 hours, the area of the ulcer formed in the small intestine was measured using a stereomicroscope (by Nikon) and a micrometer (by Olympus), and the data of 10 cases were averaged. The antiulceration potency (%) of the test compound was computed according to the following formula: Antiulceration Potency (%): [1−(mean ulcer area of compound-administered group/mean ulcer area of 0.5% MC-administered group)]×100.

T1 sequence (P80457 whole entry): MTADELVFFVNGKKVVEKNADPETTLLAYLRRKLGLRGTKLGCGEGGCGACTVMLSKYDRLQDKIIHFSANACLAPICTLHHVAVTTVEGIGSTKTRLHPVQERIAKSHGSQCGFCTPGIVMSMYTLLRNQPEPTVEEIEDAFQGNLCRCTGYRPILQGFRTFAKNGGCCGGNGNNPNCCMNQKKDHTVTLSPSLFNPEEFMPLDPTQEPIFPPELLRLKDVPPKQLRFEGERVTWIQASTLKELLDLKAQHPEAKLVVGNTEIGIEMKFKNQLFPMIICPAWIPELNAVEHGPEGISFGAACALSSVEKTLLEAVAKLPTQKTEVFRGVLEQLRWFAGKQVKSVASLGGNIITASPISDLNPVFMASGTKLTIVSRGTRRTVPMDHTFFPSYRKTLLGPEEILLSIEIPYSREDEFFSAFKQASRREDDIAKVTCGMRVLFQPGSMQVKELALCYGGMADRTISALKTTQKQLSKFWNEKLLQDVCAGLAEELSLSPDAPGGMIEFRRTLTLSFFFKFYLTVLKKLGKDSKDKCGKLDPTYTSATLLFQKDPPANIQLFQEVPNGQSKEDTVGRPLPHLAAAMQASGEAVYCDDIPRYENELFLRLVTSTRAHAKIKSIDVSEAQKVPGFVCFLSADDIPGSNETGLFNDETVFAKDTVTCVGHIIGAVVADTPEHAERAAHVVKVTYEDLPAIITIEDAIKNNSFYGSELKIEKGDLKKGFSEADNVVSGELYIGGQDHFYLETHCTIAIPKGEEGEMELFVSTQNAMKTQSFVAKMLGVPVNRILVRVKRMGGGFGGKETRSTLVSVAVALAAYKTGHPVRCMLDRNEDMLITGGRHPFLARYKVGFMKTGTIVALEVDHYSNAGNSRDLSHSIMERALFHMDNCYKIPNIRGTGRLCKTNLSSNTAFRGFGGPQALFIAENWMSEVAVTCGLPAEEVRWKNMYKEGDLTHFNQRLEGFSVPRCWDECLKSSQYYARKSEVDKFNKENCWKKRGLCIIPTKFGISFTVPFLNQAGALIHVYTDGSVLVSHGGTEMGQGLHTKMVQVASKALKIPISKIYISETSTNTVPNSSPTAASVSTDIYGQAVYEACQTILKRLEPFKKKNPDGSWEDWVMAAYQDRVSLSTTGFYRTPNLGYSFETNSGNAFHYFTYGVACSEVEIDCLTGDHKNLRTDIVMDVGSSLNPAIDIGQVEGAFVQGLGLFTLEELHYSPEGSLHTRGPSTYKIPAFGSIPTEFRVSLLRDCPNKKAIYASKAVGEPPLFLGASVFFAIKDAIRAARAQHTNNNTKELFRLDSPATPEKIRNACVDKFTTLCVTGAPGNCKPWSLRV

| SMILES | IC50 [2] | further results |
| --- | --- | --- |
| Cc1nc(-c2ccc(OCC(C)C)c(C#N)c2)sc1C(=O)O [Compound A, 2-(3-cyano-4-isobutyloxyphenyl)-4-methyl-1,3-thiazole-5-carboxylic acid] |  | Antiulceration potency (inhibitory potency), mean ulcer length in gastric corpus vs 0.5% MC group (SD rats [1]; 30 mg/kg oral): 36% |
| CC(C)(C)COc1ccc(-n2cc(C(=O)O)cn2)cc1C#N [Compound B, 1-(3-cyano-4-neopentyloxyphenyl)-1H-pyrazole-4-carboxylic acid] |  | Antiulceration potency (inhibitory potency), mean ulcer length in gastric corpus vs 0.5% MC group (SD rats [1]; 30 mg/kg oral): 43% |
| Oc1ncnc2[nH]ncc12 [allopurinol, reference compound] |  | Antiulceration potency (inhibitory potency), mean ulcer length in gastric corpus vs 0.5% MC group (SD rats [1]; 30 mg/kg oral): no inhibitory potency was confirmed; Antiulceration potency (inhibitory potency), mean ulcer area in small intestine vs 0.5% MC group (SD rats [3]): no inhibitory potency was confirmed |
| N#Cc1cc(-c2cc(C(=O)[O-])ccn2)ccc1-c1ccccc1.[Na+] [compound 8] |  | Antiulceration potency (inhibitory potency), mean ulcer length in gastric corpus vs 0.5% MC group (SD rats [1]; 30 mg/kg oral): 72%; Antiulceration potency (inhibitory potency), mean ulcer area in small intestine vs 0.5% MC group (SD rats [3]): 29% |
| N#Cc1cc(-c2cc(C(=O)O)ccn2)ccc1-n1ncc2ccccc21 [compound 179] | ≤ 20 nM |  |
| Cc1nc(-c2ccc(-c3ccccc3)c(C#N)c2)sc1C(=O)O [compound 237] | ≤ 20 nM | Antiulceration potency (inhibitory potency), mean ulcer length in gastric corpus vs 0.5% MC group (SD rats [1]; 10 mg/kg oral): 32%; Antiulceration potency (inhibitory potency), mean ulcer area in small intestine vs 0.5% MC group (SD rats [3]): 59% |
| Cc1nc(-c2ccc(-c3ccc(OC(F)(F)F)cc3)c(C#N)c2)sc1C(=O)O [compound 240] | ≤ 20 nM |  |
| Cc1cccc(-c2ccc(-c3nc(C)c(C(=O)O)s3)cc2C#N)c1 [compound 243] | ≤ 20 nM |  |
| N#Cc1cc(-c2ncc(C(=O)O)s2)ccc1-c1ccccc1 [compound 250] | ≤ 20 nM | Antiulceration potency (inhibitory potency), mean ulcer area in small intestine vs 0.5% MC group (SD rats [3]): 73% |
| N#Cc1cc(-n2cc(C(=O)O)cn2)ccc1-c1ccccc1 [compound 251] | ≤ 20 nM | Antiulceration potency (inhibitory potency), mean ulcer length in gastric corpus vs 0.5% MC group (SD rats [1]; 30 mg/kg oral): 43%; Antiulceration potency (inhibitory potency), mean ulcer area in small intestine vs 0.5% MC group (SD rats [3]): 41% |
| Cc1ccc(-c2ccc(-n3cc(C(=O)O)cn3)cc2C#N)cc1 [compound 252] | ≤ 20 nM |  |

Continued, in another order:

| IC50 [2] | SMILES | further results |
| --- | --- | --- |
| 6.3 nM | CC(C)COc1ccc(-c2cc(C(=O)O)ccn2)cc1C(F)(F)F [Example 30] |  |
| 2.5 nM | CC(C)CSc1ccc(-c2cc(C(=O)O)ccn2)cc1C#N [Example 53] |  |
| 1.5 nM | N#Cc1cc(-c2ccc(C(=O)O)s2)cc(F)c1OC1CCCC1 [Example 119] |  |
| ≤ 20 nM | N#Cc1cc(-c2cc(C(=O)O)ccn2)ccc1-c1ccc(F)cc1 [compound 133] |  |
| ≤ 20 nM | COc1ccccc1-c1ccc(-c2cc(C(=O)O)ccn2)cc1C#N [compound 138] |  |
| ≤ 20 nM | N#Cc1cc(-c2cc(C(=O)O)ccn2)ccc1-c1ccsc1 [compound 141] |  |
| ≤ 20 nM | N#Cc1ccc(-c2ccc(-c3cc(C(=O)O)ccn3)cc2C#N)cc1 [compound 143] |  |
| ≤ 20 nM | N#Cc1cc(-c2cc(C(=O)O)ccn2)ccc1-c1ccco1 [compound 145] |  |
| ≤ 20 nM | CC(C)(C)c1ccc(-c2ccc(-c3cc(C(=O)O)ccn3)cc2C#N)cc1 [compound 153] |  |
| ≤ 20 nM | N#Cc1cc(-c2cc(C(=O)O)ccn2)ccc1-c1ccc(Oc2ccccc2)cc1 [compound 166] |  |
| ≤ 20 nM | N#Cc1cc(-c2cc(C(=O)O)ccn2)ccc1-c1ccc2c(c1)OCO2 [compound 169] |  |
